In patent US8969332B2, “Aryloxy dihalopropenyl ether compounds and uses thereof” (Sinochem Corporation, priority 2011, dated 2015):

Tested on: beet armyworm
Assay: Insecticidal activity against beet armyworm (24 well-plate artificial diet emulsion method)
Format: in vivo
Details: Spodoptera exigua, 72 h, read-out: Mortality of beet armyworm (%)
Description: Compounds were dissolved in mixed solvent (acetone:methanol=1:1), and diluted to required concentration with water containing 0.1% of tweed 80.
24 well-plate artificial diet emulsion method: artificial food was added to each well of the 24 well-plate, after the artificial food was cooled, the prepared solution were added into the 24 well-plate according to the experimental design by order of chemical concentrations from low to high, by gently shaking the even emulsion film can be formed on the surface of the diet. 24 neat and healthy larvae were put into the 24 well-plate (one larvae each well) after the film was air-dried and 3 replicates were set for each treatment. Then the insects were maintained in observation room (25° C., 60˜70% R.H.). Scores were conducted and mortalities were calculated after 72 h.

## FC(F)(F)c1ccc(Oc2ccc(OCCCOc3c(Cl)cc(OCC=C(Cl)Cl)cc3Cl)cc2)nc1 [Compound 1]
2.5 mg/L
  mortality at 2.5 µg/mL: 47.8%
10 mg/L
  mortality at 10 µg/mL: 100%
